Experiment: Room temperature storage of ketorolac formulated at different pH
Assay type: physicochemical
Conditions: formulated with a pH of less than 5 or greater than 9

## O=C(c1ccccc1)c1ccc2n1CCC2C(=O)O (stereo not shown) [ketorolac, Ketorolac]
  degradation when stored at room temperature: would degrade

Source: US20160296498A1, “Ketorolac Sublingual Spray Formulations” (Insys Development Company, Inc., priority 2015, published 2016)
